Where two headings read alike, the source gives them in different places. Each block holds one molecule with its values, some of them ahead of it.
Key:
[1] = test system: pSTAT5 expression in CD3+ cells; assay: Inhibition of pSTAT5 expression in CD3+ cells of IFN-alpha stimulated human PBMC by FACS; assay type: cell-based; details: read-out: Inhibitory activity on p-STAT5 expression (IC50 value)
Description: Compound dilution and preparation: The test compound was prepared into a 10 mM solution using DMSO, and diluted in DMSO to obtain a solution with a gradient of different concentrations which was 500 times of the final concentration. 5 μL of the diluted compound was transferred into 120 μL of PBS solution containing 0.1% BSA. Positive and negative control groups were set up with 0.2% DMSO ultimately contained in each group.
• 1) Human PBMC cells were added into a 96-well cell culture plate, with 0.5 million cells and a volume of 67.5 μL per well. • 2) 3.5 μL of the diluted compound was added and mixed evenly. • 3) The incubation was carried out in a 37° C. incubator for 60 minutes. • 4) IFN-alpha was diluted to 600 ng/ml in DPBS containing 0.1% BSA. After the above 60-minute incubation, 5 μL of PE-anti-hCD3 antibody was added into each well, then 4 μL of the diluted IFN-alpha was also added into each well. • 5) The incubation was carried out in a 37° C. incubator for 30 minutes. • 6) All cells were transferred into a 96-deep-well plate and added with 1 mL of Lyse/fix buffer preheated at 37° C. • 7) The incubation was carried out in dark at 37° C. for 10 minutes. • 8) The plate was centrifuged at 600 g for 5 minutes with the supernatant abandoned, then washed twice with 1 mL of PBS and centrifuged. • 9) 1 mL of Perm buffer III was added into the cell precipitation. • 10) The incubation was carried out in dark at 4° C. for 30 minutes. • 11) The plate was centrifuged at 600 g for 5 minutes with the supernatant abandoned, then washed twice with 1 mL of PBS and centrifuged. • 12) APC anti-human pSTAT5 antibody was diluted 200 times in Staining buffer, then added into the cell wells with 100 μL per well, and mixed evenly. • 13) The incubation was carried out at room temperature for 40 minutes. • 14) The plate was washed twice with 1 mL of Staining buffer per well, and centrifuged at 600 g for 5 minutes. • 15) After the supernatant was abandoned, the cell precipitation was resuspended in 300 μL of Staining buffer. • 16) The sample was loaded and analyzed in a Beckman CytoFlex flow cytometer.

TYK2-JH2 = TYK2-JH2 (Homo sapiens, UniProt P29597); assay: Enzymology experiment in vitro: TYK2-JH2 binding (Tb antibody/Tracer fluorescence ratio); details: for IC50: read-out: TYK2-JH2 binding inhibitory activity (IC50 value)
Chain of TYK2-JH2 (P29597 589-875 limits assumed): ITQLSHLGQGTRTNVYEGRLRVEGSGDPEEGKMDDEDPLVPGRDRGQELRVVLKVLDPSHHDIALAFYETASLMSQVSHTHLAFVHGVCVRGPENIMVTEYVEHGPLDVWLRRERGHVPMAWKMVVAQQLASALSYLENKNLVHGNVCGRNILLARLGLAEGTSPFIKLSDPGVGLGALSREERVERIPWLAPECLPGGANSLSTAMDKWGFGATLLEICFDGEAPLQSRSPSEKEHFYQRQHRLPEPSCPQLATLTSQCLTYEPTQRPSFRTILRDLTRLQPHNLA

[2] = test system: psoriasis-like mouse model induced by imiquimod; assay: Efficacy test in psoriasis-like mouse model induced by imiquimod (PASI score); assay type: in vivo, Balb/c mice
Description: Experimental animal: Balb/c mice.
• (1) negative control group (applying Vaseline, administering solvent intragastrically), • (2) model control group [applying imiquimod (IMQ)], • (3) administration group (applying IMQ, administering Compound 7, Compound 8, Compound 9, Compound 10, and Compound No. 146 intragastrically); • wherein, “Compound No. 146” refers to the compound in Example 146 of reference WO2014074661, which was prepared according to the method described therein.
(§1) Administration dosage and method: 20 mg/kg, BID, intragastric administration.
Experiment process: On Day 0, the animals were subjected to hair shaving on the test area of the back, and then they were grouped. From Day 1 to Day 7, one hour after the first administration in every morning, 40 mg of 5% imiquimod cream was applied once to the test area on the back, after that, a second administration was conducted on the same day. The skin lesion symptoms of psoriasis and efficacy were evaluated through Psoriasis Area and Severity Index (PASI) score (erythema, scale, thickening degree). The higher the score, the more severe the symptoms are.
PASI score results on day 7 are listed in the table below, wherein, • “+” represents a score of ≥6; • “++” represents a score of greater than 5 and less than 6; • “+++” represents a score of greater than 4 and less than or equal to 5; • “++++” represents a score of less than or equal to 4.
By using the same scheme as test example 1, pharmaceutical efficacy in psoriasis-like mouse model induced by imiquimod was studied.
By using the same scheme as test example 1, pharmaceutical efficacy in psoriasis-like mouse model induced by imiquimod was studied. PASI score results on Day 7 are listed in the table below, wherein, • “+” represents a score of ≥6; • “++” represents a score of greater than 5 and less than 6; • “+++” represents a score of greater than 4 and less than or equal to 5; • “++++” represents a score of less than or equal to 4.

[3] = Pharmacokinetic study in vivo; details: rat, plasma; male SD rats; 1 mg/kg IV, 10 mg/kg PO (intragastric), single administration; read-out: Absolute bioavailability(F %)
Description: Experimental animal: 8 to 10 week-old male SD rats, fasted 12 hours before administration. Intragastric administration: mixed solution (ethanol+TPGS+PEG300=5:5:90) was used as the administration solvent. Injection administration: mixed solution (PEG400+ddH20=80:20) was used as the administration solvent. Administration capacity: 5 ml/kg. Animal grouping: intravenous IV group and intragastric PO group, with 3 male SD rats in each group. Administration route and dosage: 1 mg/kg for intravenous IV group; 10 mg/kg for intragastric PO group. Administration frequency: single administration. • IV blood collection points: 5 minutes, 15 minutes, 30 minutes, 1 hour, 2 hours, 4 hours, 6 hours, 8 hours, and 24 hours after administration; • PO blood collection points: 15 minutes, 30 minutes, 1 hour, 2 hours, 4 hours, 6 hours, 8 hours, and 24 hours after administration. The whole blood of rat was centrifuged at 10000 rpm for 5 minutes to separate plasma, which was stored at 4° C. 0.1 ml of the plasma was taken, added with 0.2 ml of acetonitrile, vortexed for 1 minute, and centrifuged at 10000 rpm for 5 minutes to take the supernatant, which was sent for analysis of drug content after 0.22 μm filtration.

IL-17F = assay: Rat model with increased IL-17 induced by imiquimod, intragastric administration; assay type: in vivo, SD rats; details: for skin lesions in rats: after treatment by intragastric administration
Description: Experimental animal: 8 to 10-week old SD rats, half male and half female.
• (1) negative control group (applying Vaseline, administering solvent intragastrically), • (2) model control group [applying imiquimod (IMQ)], • (3) administration group (applying IMQ, administering the compounds of the present invention intragastrically).
as §1
Model establishment: SD rat was subjected to application of 40 mg of imiquimod ointment on its back skin once a day to construct the rat model. […]
By using the same scheme as biological test example 8, the efficacy of the compounds of the present invention was evaluated, and the following test results were obtained: […]

[4] = Test Example 6, same scheme as test example 1, day 7
[5] = Test Example 8, SD rats, imiquimod, 20 mg/kg BID intragastric, day 6
[6] = human PBMC, CD3+ cells, IFN-alpha stimulation, FACS
[7] = Test Example 1, Balb/c mice, imiquimod, 20 mg/kg BID intragastric, day 7, higher score = more severe
[8] = Test Example 9, same scheme as test example 8

SMILES: [2H]C([2H])([2H])NC(=O)c1nnc(NC(=O)C2([2H])CC2)cc1Nc1nccc(-c2ncn(CC#C)n2)c1OC [Compound 11]
IC50 ([1]; Homo sapiens, PBMC): < 1 nM | IC50 (TYK2-JH2): < 0.1 nM | PASI score ([2]; Test Example 2, same scheme as test example 1, day 7): ++++ (a score of less than or equal to 4) | PASI score [2, 4]: ++++ (a score of less than or equal to 4) | bioavailability [3]: 97.8% | Content level of IL-17F in skin (IL-17F; [5]): A (an IL-17F content less than 30 pg/mL) | skin lesions in rats (IL-17F): significantly reduced

IC50 [1, 6]: 5 to 10 nM | IC50 (TYK2-JH2): 0.5 to 1 nM
SMILES: [2H]C([2H])([2H])NC(=O)c1nnc(NC(=O)C2CC2)nc1Nc1cccc(-c2ncn(CC#C)n2)c1OC [Compound 2-1B-2]
PASI score [2, 4]: ++ (a score of greater than 5 and less than 6)

SMILES: [2H]C([2H])([2H])NC(=O)c1nnc(NC(=O)C2CC2)cc1Nc1nccc(-c2ncn(C([2H])([2H])C#C)n2)c1OC [Compound 8]
IC50 ([1]; Homo sapiens, PBMC): < 1 nM | IC50 (TYK2-JH2): < 0.1 nM | PASI score [2, 7]: ++++ (a score of less than or equal to 4) | PASI score [2, 4]: ++++ (a score of less than or equal to 4)

IC50 [1, 6]: < 1 nM | IC50 (TYK2-JH2): < 0.1 nM
SMILES: [2H]C([2H])([2H])NC(=O)c1nnc(NC(=S)C2CC2)cc1Nc1nccc(-c2ncn(C)n2)c1OC [Compound 2-1A-1]
PASI score [2, 4]: ++++ (a score of less than or equal to 4) | Content level of IL-17F in skin (IL-17F; [8]): A (an IL-17F content less than 30 pg/mL) | skin lesions in rats (IL-17F): significantly reduced

SMILES: [2H]C([2H])([2H])NC(=O)c1nnc(NC(=O)C=C)cc1Nc1cccc(-c2ncn(C)n2)c1OC [Compound 1-9]
PASI score [2, 4]: + (a score of ≥6)

SMILES: [2H]C([2H])([2H])NC(=O)c1nnc(NC(=O)C2CC2)cc1Nc1cccc(-c2ncn(COCC[Si](C)(C)C)n2)c1OC [Compound 1-3]
PASI score [2, 4]: ++ (a score of greater than 5 and less than 6)

SMILES: [2H]C([2H])([2H])NC(=O)c1nnc(NC(=O)C2CC2)cc1Nc1cccc(-c2ncn(CCNC(C)=S)n2)c1OC [Compound 1-4]
PASI score [2, 4]: ++ (a score of greater than 5 and less than 6)

SMILES: [2H]C([2H])([2H])NC(=O)c1nnc(NC(=O)C2CC2)cc1Nc1cccc(-n2ccnn2)c1OC [Compound 1-6]
PASI score [2, 4]: ++ (a score of greater than 5 and less than 6)

SMILES: [2H]C([2H])([2H])NC(=O)c1nnc(NC(=O)C2CC2)cc1Nc1cccc(-n2cccn2)c1OC [Compound 1-5]
PASI score [2, 4]: ++ (a score of greater than 5 and less than 6)

SMILES: [2H]C([2H])([2H])NC(=O)c1nnc(NC(=O)C2CC2([2H])[2H])cc1Nc1nccc(-c2ncn(CC#C)n2)c1OC (centres unmarked) [Compound 10]
IC50 ([1]; Homo sapiens, PBMC): < 1 nM | effect on the activity of TYK2-JH2 (in words) (TYK2-JH2): have inhibitory effects on the activity of TYK2-JH2 | PASI score [2, 7]: ++++ (a score of less than or equal to 4)

SMILES: [2H]C([2H])([2H])NC(=O)c1nnc(NC(=O)C2CC2)cc1Nc1nccc(-c2ncn(CC#C)n2)c1OC [Compound 7]
IC50 ([1]; Homo sapiens, PBMC): < 1 nM | IC50 (TYK2-JH2): < 0.1 nM | PASI score [2, 7]: ++++ (a score of less than or equal to 4) | PASI score [2, 4]: ++++ (a score of less than or equal to 4) | Content level of IL-17F in skin (IL-17F; [5]): A (an IL-17F content less than 30 pg/mL) | skin lesions in rats (IL-17F): significantly reduced

SMILES: [2H]C([2H])([2H])NC(=O)c1nnc(NC(=O)C2CC2)cc1Nc1cccc(-c2ncn(C3(C(=O)OC)CC3)n2)c1OC [Compound 1-7]
PASI score [2, 4]: ++ (a score of greater than 5 and less than 6)

IC50 [1, 6]: 5 to 10 nM | IC50 (TYK2-JH2): 0.1 to 0.5 nM
SMILES: [2H]C([2H])([2H])NC(=O)c1nnc(NC(=O)C2CC2)cc1Nc1cccc(-c2nnn(CC#C)n2)c1OC [Compound 2-1B-1]
PASI score [2, 4]: ++ (a score of greater than 5 and less than 6)

SMILES: [2H]C([2H])([2H])NC(=O)c1nnc(NC(=N)C2CC2)cc1Nc1cccc(-c2ncn(C)n2)c1OC [Compound 1-1-1]
PASI score [2, 4]: + (a score of ≥6) | Content level of IL-17F in skin (IL-17F; [8]): D (an IL-17F content ranging from 300 pg/mL to 400 pg/mL)

SMILES: [2H]C#CC([2H])([2H])n1cnc(-c2ccnc(Nc3cc(NC(=O)C4CC4)nnc3C(=O)NC([2H])([2H])[2H])c2OC)n1 [Compound 9]
IC50 ([1]; Homo sapiens, PBMC): < 1 nM | IC50 (TYK2-JH2): < 0.1 nM | PASI score [2, 7]: ++++ (a score of less than or equal to 4) | PASI score [2, 4]: ++++ (a score of less than or equal to 4)

SMILES: [2H]C([2H])([2H])NC(=O)c1nnc(NS(=O)(=O)C2CC2)cc1Nc1cccc(-c2ncn(C)n2)c1OC [Compound 1-8]
PASI score [2, 4]: + (a score of ≥6)

IC50 [1, 6]: 5 to 10 nM | IC50 (TYK2-JH2): 0.1 to 0.5 nM
SMILES: [2H]C([2H])([2H])NC(=O)c1nnc(NC(=O)C2CC2)cc1Nc1cccc(-c2ccn(CC#C)n2)c1OC [Compound 2-1B-7]
PASI score [2, 4]: ++ (a score of greater than 5 and less than 6)

Source: patent publication US20240382477A1, “NITROGEN-CONTAINING HETEROCYCLIC PYRIDINE COMPOUND” (SHANGHAI ZHEYE BIOTECHNOLOGY CO. LTD., priority 2021, published 2024)
